# How the values were obtained:
# [1] = target: T1, Amine oxidase [flavin-containing] A (Homo sapiens, UniProt P21397); assay: Inhibition Assay; conditions: pH 7.4; 37 °C
# T1 sequence (P21397 whole entry): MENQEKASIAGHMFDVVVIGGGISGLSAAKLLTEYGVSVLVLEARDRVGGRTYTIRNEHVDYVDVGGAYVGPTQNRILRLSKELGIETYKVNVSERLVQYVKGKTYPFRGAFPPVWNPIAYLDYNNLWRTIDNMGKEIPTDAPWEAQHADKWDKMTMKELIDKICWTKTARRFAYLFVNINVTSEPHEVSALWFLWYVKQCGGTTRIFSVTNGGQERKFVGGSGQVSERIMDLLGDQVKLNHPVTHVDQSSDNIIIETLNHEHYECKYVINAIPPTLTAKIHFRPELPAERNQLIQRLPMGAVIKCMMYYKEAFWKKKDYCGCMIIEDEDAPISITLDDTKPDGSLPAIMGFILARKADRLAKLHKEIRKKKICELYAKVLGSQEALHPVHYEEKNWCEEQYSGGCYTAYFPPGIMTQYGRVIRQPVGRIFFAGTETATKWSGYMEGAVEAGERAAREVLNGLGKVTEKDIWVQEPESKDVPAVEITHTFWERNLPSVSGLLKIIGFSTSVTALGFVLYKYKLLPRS
# Description: (§1) Inhibition studies using recombinant human MAO-A and MAO-B that were obtained from commercial sources (Sigma-Aldrich).
# [2] = target: T2, Amine oxidase [flavin-containing] B (Homo sapiens, UniProt P27338); assay: Inhibition Assay; conditions: pH 7.4; 37 °C
# T2 sequence (P27338 whole entry): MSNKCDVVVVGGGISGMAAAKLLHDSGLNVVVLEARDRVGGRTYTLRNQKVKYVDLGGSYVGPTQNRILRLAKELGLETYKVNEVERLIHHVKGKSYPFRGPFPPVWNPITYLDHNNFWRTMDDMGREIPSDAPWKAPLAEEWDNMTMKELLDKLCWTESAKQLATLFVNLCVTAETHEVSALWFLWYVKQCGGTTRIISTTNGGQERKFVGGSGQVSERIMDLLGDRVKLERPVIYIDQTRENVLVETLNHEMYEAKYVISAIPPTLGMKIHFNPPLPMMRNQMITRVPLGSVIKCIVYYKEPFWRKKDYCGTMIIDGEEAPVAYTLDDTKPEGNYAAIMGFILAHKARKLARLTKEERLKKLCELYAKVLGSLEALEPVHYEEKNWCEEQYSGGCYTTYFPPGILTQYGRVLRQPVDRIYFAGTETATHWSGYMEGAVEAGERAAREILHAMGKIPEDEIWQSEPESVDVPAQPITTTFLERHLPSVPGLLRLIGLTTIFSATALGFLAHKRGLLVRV
# Description: as §1
Compound,IC50 [1],IC50 [2]
"O=c1ccoc2cc(OCc3cccc(Cl)c3)ccc12 [C7-substituted chromone derivative, 3d]",1520 nM,
"N#Cc1cccc(COc2ccc3c(=O)ccoc3c2)c1 [C7-substituted chromone derivative, 3l]",784 nM,370 nM
"O=c1ccoc2cc(OCCCc3ccccc3)ccc12 [C7-substituted chromone derivative, 3c]",3080 nM,121 nM
"O=c1ccoc2cc(OCc3ccccc3)ccc12 [C7-substituted chromone derivative, 3a]",5330 nM,85 nM
"O=c1ccoc2cc(OCc3ccc(F)cc3)ccc12 [C7-substituted chromone derivative, 3i]",1170 nM,
"O=c1ccoc2cc(OCCc3ccc(Br)cc3)ccc12 [C7-substituted chromone derivative, 3o]",718 nM,317 nM
"N#Cc1ccc(COc2ccc3c(=O)ccoc3c2)cc1 [C7-substituted chromone derivative, 3m]",1570 nM,117 nM
"O=c1ccoc2cc(OCc3ccc(C(F)(F)F)cc3)ccc12 [C7-substituted chromone derivative, 3n]",1970 nM,
"O=c1ccoc2cc(OCc3ccc(Cl)cc3)ccc12 [C7-substituted chromone derivative, 3e]",495 nM,29 nM
"O=c1ccoc2cc(OCCc3ccccc3)ccc12 [C7-substituted chromone derivative, 3b]",2190 nM,115 nM
"Cc1ccc(COc2ccc3c(=O)ccoc3c2)cc1 [C7-substituted chromone derivative, 3k]",7120 nM,75 nM
"O=c1ccoc2cc(OCc3ccc(Br)cc3)ccc12 [C7-substituted chromone derivative, 3g]",592 nM,18 nM
"O=c1ccoc2cc(OCc3cccc(Br)c3)ccc12 [C7-substituted chromone derivative, 3f]",1730 nM,14 nM
"O=c1ccoc2cc(OCc3cccc(F)c3)ccc12 [C7-substituted chromone derivative, 3h]",2100 nM,44 nM
"Cc1cccc(COc2ccc3c(=O)ccoc3c2)c1 [C7-substituted chromone derivative, 3j]",8030 nM,62 nM
